Read-outs that look alike come from different tables or passages of the source. One block for each compound: values may come before it. Square brackets hold non-standard residues; d marks the D form. Ends that are not written are not given here. Peptide text beside a SMILES is read from it. Dmt = Cc1cc(O)cc(C)c1C[C@H](N)C(=O)O; Tic = O=C(O)[C@@H]1Cc2ccccc2CN1
Key:
[1] = system: NMUR1 and NMUR2 expression in CRC cells; test: 5-aza-CdR treatment for NMUR1 and NMUR2 expression analysis (real-time PCR); assay type: cell-based, human; settings: 50 µM for 96 h (4 days), n ≥ 4
Experimental: Total RNA was isolated with the ReliaPrep™ RNA Cell Miniprep System (Promega, Madison, WI, USA). The quality control of isolated RNA was performed using the 2100 Bioanalyser (Agilent Technologies, Palo Alto, CA, USA) according to the manufacturer’s instructions. 1 µg of the isolated total RNA (RIN ≥ 8) was reverse transcribed using the High Capacity cDNA Reverse Transcription Kit (Applied Biosystems, CA, USA) according to the manufacturer’s instructions. Real time PCR for human NMU, NMUR1, NMUR2, NTSR1, GHSR1b, GAPDH and β-actin was performed using FastStart Essential DNA Probes Master or FastStart Essential DNA Green Master (Roche, Basel, Switzerland). Amplification was performed on a Roche LightCycler 96. GADPH and/or β-actin mRNA transcripts were used as internal control genes. The amount of target in the various samples was calculated using the 2^−ΔCt relative quantification method with DataAssist v.3.01.
Cells were seeded on 6-well plates (Corning, NY, USA). After cells attachment (6 h), DNA methyltransferase inhibitor, 5-aza-2’-deoxycytidine (5-aza-CdR) (Sigma-Aldrich) was added at final concentration of 50 µM. Medium containing 5-aza-CdR was refreshed every 24 h. After 96 h, total RNA was isolated and analysed. The real-time PCR products were analysed on a 2 % agarose gel with ethidium bromide (Sigma-Aldrich) and visualized.

[2] = Half-life in human plasma (plasma stability); assay type: in vitro ADME
Excerpt: NMURs agonists, which are NMU-8 analogues, were synthesized with a HPLC purity > 98 %, as described in literature. […] All peptides were used as solutions in water. Peptide sequences and stability data are available in the Table S1 (Additional File 1).

HT29 cells = test: Ca2+ mobilization assay (fluo-4) in HT29 cells; assay type: cell-based, human
Experimental: (§1) Cells grown on poly-lysine-coated 48-well plates (Corning) for 24 h were stained for 15 min at 37 °C with Hoechst 33342 (Invitrogen). PBS rinsed cells were loaded with Fluo-4 AM (5 µM; Invitrogen) for 45–60 min at 37 °C in the presence of 0.5 % of pluronic-127 in the incubation medium (growth medium without FBS and PS, supplemented with 0.1 % BSA). Cells were rinsed with warm PBS and bathed in a final volume of 300 µl of incubation medium. Images were acquired using AxioVert fluorescence inverted microscope (Zeiss, Germany) with the use of 10 x dry objective (NA 0.3). First, an image of Hoechst 33342-stained nuclei was acquired. Next, a time-lapse image sequence in green channel (Fluo-4) was recorded with exposure time of 500 ms in the same field of view. […] For analysis of CRC cells we chose minimal concertation that induce significant fluorescence change. NMU-9 (1 µM) and NMUR2 agonist (200 nM ~ 5 times the EC50 determined in literature). […] Quantification of the effects is described in Additional Files 1 and 3. […]
(§2) Quantification of the calcium mobilisation were performed with the use of FIJI image processing package***. […] Fluorescence intensity change over time was measured in each ROI in corresponding movie sequence of Fluo-4 stained cells. […] Such background-corrected values of fluorescence intensity were used for further calculations. […]

[3] = system: HEK293 R2_HA cell line overexpressing NMUR2; test: Ca2+ mobilization assay (fluo-4) in HEK293 R2_HA cells; assay type: cell-based, human
Experimental: as §1, §2

ERK1/2 in Caco-2 cells = test: ERK1/2 activation analysis (immunoblot) in Caco-2 cells; assay type: cell-based, human; settings: SBL-NMU-17 250 nM, immunoblot pERK1/2 normalised to ERK1/2 and α-tubulin, n = 5 (NMU-9 n = 1)
Experimental: (§3) CRC cells were lysed with RIPA buffer (100 mM TRIS-HCl, pH 7.5, 300 mM NaCl, 0.2 % SDS with 1 % IGEPAL CA-630 and the Halt™ Protease Inhibitor Cocktail (Thermo Fisher Scientific)) with subsequent centrifugation (18,000 x g, 4 °C, 20 min). Total protein concentration in lysate was quantified by BCA method (Pierce BCA Protein Assay; Thermo Fisher Scientific). Samples were loaded and separated by SDS-PAGE (Mini-PROTEAN TGX Stain-Free Gels; Bio-Rad Laboratories, CA, USA) and transferred onto nitrocellulose membranes (Bio-Rad Laboratories). NMU protein was detected with rabbit anti-NMU antibody (Genetex, CA, USA), for ERK1/2 kinases analysis mouse anti-ERK1/2 (Santa Cruz Biotechnology, USA) and rabbit anti-pERK1/2 antibodies (Invitrogen) were used. In EVs (extracellular vesicles) purity analysis we used rabbit antibodies anti-GM130, anti-annexin V and anti-flotilin-1 (Cell Signaling Technologies, Danvers, MA, USA). Proteins used as loading controls were detected by mouse anti-β-actin, mouse anti-α-tubulin or rabbit anti-GAPDH antibody (Abcam, Cambridge, GB). We used secondary HRP-conjugated goat anti-mouse (Santa Cruz Biotechnology) or anti-rabbit antibodies (Invitrogen). The signal was detected by chemiluminescence (Thermo Fisher Scientific) with Kodak BioMax Light Film from Eastman Kodak (NY, USA). […]

[4] = system: ERK1/2 in HEK293 R2_HA cells; test: ERK1/2 activation analysis (immunoblot) in HEK293 R2_HA cells; assay type: cell-based, human; settings: HEK293 R2_HA clone, n = 1
Experimental: as §3, with “In EVs (extracellular vesicles) purity analysis we used rabbit antibodies anti-GM130, anti-annexin V and anti-flotilin-1 (Cell Signaling Technologies, Danvers, MA, USA).” left out, “We used secondary HRP-conjugated goat anti-mouse (Santa Cruz Biotechnology) or anti-rabbit antibodies (Invitrogen).” left out
Fig. S1 HEK293 R2_HA clones with exogenous NMUR2 overexpression. (A) NMUR2 mRNA levels were analysed in HT29 with endogenous expression of NMUR2 and compared to those in HEK293 R2_HA clones with exogenous expression of NMUR2 (**p ≤ 0,01; n ≥ 3). […] The changes in fluorescence were detected and analysed as described in the Methods section. […]

NMUR2 = NMUR2 agonist, cited from earlier work
Excerpt: (§4) NMURs agonists, which are NMU-8 analogues, were synthesized with a HPLC purity > 98 %, as described in literature.

HCT116 cells = test: Ca2+ mobilization assay (fluo-4) in HCT116 cells; assay type: cell-based, human; settings: 1 µM NMU-9, 40 nM NMUR1 agonist, percentage of cells above threshold, n = 5
Experimental: as §1, with “change.” for “change. NMU-9 (1 µM) and NMUR2 agonist (200 nM ~ 5 times the EC50 determined in literature).”
Quantification of the calcium mobilisation were performed with the use of FIJI image processing package***. […] Fluorescence intensity change over time was measured in each ROI in corresponding movie sequence of Fluo-4 stained cells. To acquire the change of background fluorescence over time in each movie sequence, additional ROIs were created by the analyst manually in the sites devoid of cells. […]

[5] = cited from earlier work
Excerpt: Supplement 13046_2021_2073_MOESM1_ESM.docx, table 1: Table S1. […] NMURs agonists, which are NMU-8 analogues, were synthesized with a HPLC purity > 98 %, as described in literature.

NMUR1 = NMUR1 agonist, cited from earlier work
Excerpt: as §4

[6] = species not given; cited from earlier work
Excerpt: Physiologically, NMU has been predominantly found in the central nervous system and in the periphery. In the gastrointestinal tract, locally administered NMU leads to smooth muscle contraction, regulating intestinal motility and regional blood flow, but epithelial cells are not the source of the peptide in the gastrointestinal tract under normal conditions. Human neuromedin U synthesis is tightly regulated at the genetic, epigenetic, transcriptional and post-transcriptional levels, regulating access to cellular microenvironments. Peptide precursors can be produced from three ...

Compound: Nc1ncn([C@H]2C[C@H](O)[C@@H](CO)O2)c(=O)n1 [5-aza-CdR, 5-aza-2’-deoxycytidine]
NMUR1 and NMUR2 expression after DNA demethylation [1]: regulated by promoter methylation

Compound: CC(C)C[C@H](NC(=O)[C@H](Cc1ccccc1)NC(=O)[C@@H](N)Cc1ccc(O)cc1)C(=O)N[C@@H](Cc1ccccc1)C(=O)N[C@@H](CCCNC(=N)N)C(=O)N1Cc2ccccc2C[C@H]1C(=O)N[C@@H](CCCNC(=N)N)C(=O)N[C@@H](CC(N)=O)C(N)=O [SBL-NMU-17] (H-YFLFR[Tic]RN-NH2)
Metabolite observed in plasma stability studies ([2]; human plasma, both peptides yielded a 7-amino acid long metabolite): only Tyr was lost
Minimal concentration that induces significant fluorescence change (Ca2+ mobilisation) (HT29 cells; CRC cells, tested 150, 200, 300 nM): 200 nM
Change in fluo-4 fluorescence intensity caused by Ca2+ mobilisation (HT29 cells; HT29 cells, 1 µM NMU-9, 200 nM NMUR2 agonist, percentage of cells above threshold, n = 5): significantly responded
Minimal effective concentration (Ca2+ influx) ([3]; HEK293 R2_HA cells loaded with fluo-4): 150 nM
Calcium mobilisation (fluo-4) ([3]; HEK293 R2_HA, NMU-9 0.7 µM, SBL-NMU-17 150 nM, n = 3): significant calcium mobilisation
Phosphorylation (activation) of ERK1/2 kinases (ERK1/2 in Caco-2 cells): induced ERK1/2 kinase activation
ERK1/2 phosphorylation [4]: observed ERK1/2 phosphorylation
EC50 (NMUR2; IP3 pathway activation data): 45.5 nM
IC50 (NMUR2; competitive binding assay): 13 nM

Compound: CC(=O)N[C@@H](Cc1ccc(O)cc1)C(=O)N[C@@H](Cc1ccccc1)C(=O)N[C@@H](CC(C)C)C(=O)N[C@@H](Cc1c(C)cc(O)cc1C)C(=O)N[C@@H](CCCNC(=N)N)C(=O)N1CCC[C@H]1C(=O)N[C@@H](CCCNC(=N)N)C(=O)N[C@@H](CC(N)=O)C(N)=O [SBL-NMU-21] (Ac-YFL[Dmt]RPRN-NH2)
Change in fluo-4 fluorescence intensity caused by Ca2+ mobilisation (HCT116 cells): did not detect statistically significant changes
Half-life in human plasma (t1/2) [5]: 4.225 h
EC50 (NMUR1; calculated based on the IP3 pathway activation data): 7.7 nM
IC50 (NMUR1; calculated based on the competitive binding assay): 0.36 nM

Half-life in human plasma (t1/2) ([2]; human): 4.60 ± 0.4 min
Compound: GYFLFRPRN-NH2 [NMU-9]
Metabolite observed in plasma stability studies [2]: the peptide devoid of the Gly-Tyr segment was quickly observed

Compound: NMU: Native neuromedin U peptide, secretory neuropeptide with amidated C-terminal pentapeptide (FRVDEEFQSPFASQSRGYFLFRPRN-NH2; UniProt P48645 142-166, looked up)
estimated half-life in plasma [6]: less than 5 min
